Assay results taken from ChEMBL document CHEMBL5034028, “Design, synthesis and biological evaluation of tyrosinase-targeting PROTACs” (Eur J Med Chem, 2021).
pIC50: −log10 of the molar value. Converted amounts (≈) assume the structure as drawn. The source made the active and inactive calls. The rule behind the calls is not given here.

Tests used:
[1] = target: T1, Protein cereblon/Tyrosinase (Homo sapiens) (UniProt P14679+Q96SW2); experiment: Protac activity at CRBN E3 ubiquitin ligase/tyrosinase in human A-375 cells assessed as induction of tyrosinase degradation at 50 uM measured after 24 hrs by immunoblotting analysis; format: cell-based
[2] = target: T1, Protein cereblon/Tyrosinase (Homo sapiens); experiment: Protac activity at CRBN E3 ubiquitin ligase/tyrosinase in human A-375 cells assessed as induction of tyrosinase degradation at 100 uM measured after 24 hrs by immunoblotting analysis; format: cell-based
[3] = target: T1, Protein cereblon/Tyrosinase (Homo sapiens); experiment: Protac activity at CRBN E3 ubiquitin ligase/tyrosinase in human A375 cells assessed as induction of tyrosinase degradation at 50 uM measured after 24 hrs by immunoblotting analysis relative to control; format: cell-based; conditions: A-375
[4] = target: Adrenergic receptor alpha-1 (Homo sapiens) (UniProt P35348+P25100+P35368); experiment: Induction of degradation in adrenergic receptor alpha1 in human A-375 cells at 100 uM measured after 24 hrs by immunoblotting analysis; format: cell-based
[5] = target: Beta-1 adrenergic receptor (Homo sapiens) (UniProt P08588); experiment: Induction of degradation in adrenergic receptor beta1 in human A-375 cells at 100 uM measured after 24 hrs by immunoblotting analysis; format: cell-based
[6] = target: D(1A) dopamine receptor (Homo sapiens) (UniProt P21728); experiment: Induction of degradation in dopamine receptor D1 in human A-375 cells at 100 uM measured after 24 hrs by immunoblotting analysis; format: cell-based
[7] = species on record: Danio rerio; experiment: Inhibition of melanin production in zebra fish assessed reduction in melanin level in back at 25 to 100 uM measured 48 hrs post fertilization; format: functional, organism-based; conditions: dose 25-100 µM
[8] = species on record: Danio rerio; experiment: Inhibition of melanin production in zebra fish assessed reduction in melanin level in tail at 25 to 100 uM measured 48 hrs post fertilization; format: functional, organism-based; conditions: dose 25-100 µM
[9] = species on record: Danio rerio; experiment: Inhibition of melanin production in zebra fish assessed reduction in melanin level in abdomen at 25 to 100 uM measured 48 hrs post fertilization; format: functional, organism-based; conditions: dose 25-100 µM
[10] = Aqueous solubility of compound; format: physicochemical; conditions: aqueous (not further specified)
[11] = species on record: Danio rerio; experiment: Inhibition of melanin production in zebra fish assessed reduction in melanin level in eyes at 25 to 100 uM measured 48 hrs post fertilization; format: functional, organism-based; conditions: dose 25-100 µM
[12] = tested on: A-375; experiment: Inhibition of melanin production in human A-375 cells assessed reduction in melanin level at 100 uM measured after 24 hrs by UV-visible absorption spectrophotometric method; format: functional, cell-based
[13] = species on record: Danio rerio; experiment: Inhibition of melanin production in zebra fish assessed depigmentation effect at 100 uM measured 96 hrs post fertilization; format: functional, organism-based
[14] = tested on: A-375; experiment: Cytotoxicity against human A-375 cells assessed as reduction in cell viability at up to 400 uM measured after 72 hrs by CCK8 assay; format: cell-based; conditions: a-375, 72 h
[15] = target: T2, Tyrosinase (Homo sapiens) (UniProt P14679); experiment: Induction of human tyrosinase degradation in human A-375 cells assessed as downregulation of tyrosinase at 100 uM pretreated with ubiquitin activating enzyme inhibitor […] for 30 mins followed by compound addition and measured after 24 hrs by immunoblotting analysis; format: cell-based
T2 sequence (whole entry): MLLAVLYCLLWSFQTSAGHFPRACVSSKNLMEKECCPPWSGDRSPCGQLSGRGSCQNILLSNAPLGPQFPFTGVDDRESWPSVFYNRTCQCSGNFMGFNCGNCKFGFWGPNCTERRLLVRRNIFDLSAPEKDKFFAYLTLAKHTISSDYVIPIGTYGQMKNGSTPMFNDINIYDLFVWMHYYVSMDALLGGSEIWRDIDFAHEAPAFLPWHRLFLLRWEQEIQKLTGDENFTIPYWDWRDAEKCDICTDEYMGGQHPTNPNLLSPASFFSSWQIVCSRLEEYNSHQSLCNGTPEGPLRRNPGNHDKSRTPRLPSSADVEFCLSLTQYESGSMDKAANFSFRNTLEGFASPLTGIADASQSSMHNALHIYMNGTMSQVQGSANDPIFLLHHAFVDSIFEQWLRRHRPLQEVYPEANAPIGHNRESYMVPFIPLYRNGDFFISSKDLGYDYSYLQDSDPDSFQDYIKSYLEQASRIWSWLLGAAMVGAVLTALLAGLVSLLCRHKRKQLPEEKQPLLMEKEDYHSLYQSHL

[16] = Toxicity in zebrafish embryo assessed as effect on respiration at 25 to 100 uM measured 48 hrs post fertilization; parameters: species or system Danio rerio; conditions: in vivo, dose 25-100 µM
[17] = target: T1, Protein cereblon/Tyrosinase (Homo sapiens); experiment: Protac activity at CRBN E3 ubiquitin ligase/tyrosinase in human A-375 cells assessed as induction of tyrosinase degradation by measuring maximum degradation at 100 uM measured after 24 hrs by immunoblotting analysis relative to control; format: cell-based
[18] = n-Octanol/water partition coefficient, logD of the compound; format: physicochemical
[19] = target: T2, Tyrosinase (Homo sapiens); experiment: Induction of human tyrosinase degradation in human A-375 cells assessed as downregulation of tyrosinase at 100 uM pretreated with proteasome inhibitor, MG132 for 30 mins followed by compound addition and measured after 24 hrs by immunoblotting analysis; format: cell-based
[20] = Cytotoxicity against human A-375 cells assessed as reduction in cell viability measured after 72 hrs by CCK8 assay; format: cell-based
[21] = tested on: A-375; experiment: Inhibition of melanin production in human A-375 cells assessed depigmentation ability at 0 to 100 uM measured after 24 hrs by UV-visible absorption spectrophotometric method relative to 100 uM L-Dopa; format: functional; conditions: dose 0-100 µM
[22] = species on record: Danio rerio; experiment: Inhibition of melanin production in zebra fish assessed reduction in melanin level in eyes at 25 to 100 uM measured 48 hrs post fertilization relative to 100 uM kojic acid; format: functional; conditions: dose 25-100 µM
[23] = target: T1, Protein cereblon/Tyrosinase (Homo sapiens); experiment: Protac activity at CRBN E3 ubiquitin ligase/tyrosinase in human A-375 cells assessed as induction of tyrosinase degradation measured after 24 hrs by immunoblotting analysis; format: cell-based
[24] = Toxicity in zebrafish embryo assessed as effect on morphology at 25 to 100 uM measured 48 hrs post fertilization; format: tissue-based, Danio rerio; conditions: in vivo, dose 25-100 µM
[25] = tested on: HEK293; experiment: Cytotoxicity against HEK293 cells assessed as reduction in cell viability at up to 400 uM measured after 72 hrs by CCK8 assay; format: cell-based; conditions: human, hek293, 72 h
[26] = species on record: Danio rerio; experiment: Inhibition of melanin production in zebra fish assessed depigmentation effect at 25 to 100 uM measured 96 hrs post fertilization relative to control; format: functional; parameters: scale not given: the % may be the effect or the level left; conditions: dose 25-100 µM
[27] = tested on: A-375; experiment: Inhibition of melanin production in human A-375 cells assessed depigmentation ability at 0 to 100 uM measured after 24 hrs by UV-visible absorption spectrophotometric method relative to 100 uM kojic acid; format: functional; conditions: dose 0-100 µM
[28] = tested on: A-375; experiment: Inhibition of melanin production in human A-375 cells assessed reduction in melanin level measured after 24 hrs by UV-visible absorption spectrophotometric method; format: functional, cell-based
[29] = species on record: Danio rerio; experiment: Inhibition of melanin production in zebra fish assessed reduction in melanin level in eyes at 25 to 100 uM measured 48 hrs post fertilization relative to 100 uM L-Dopa; format: functional; conditions: dose 25-100 µM
[30] = target: T1, Protein cereblon/Tyrosinase (Homo sapiens); experiment: Protac activity at CRBN E3 ubiquitin ligase/tyrosinase in human A-375 cells assessed as induction of tyrosinase degradation at 100 uM measured up to 48 hrs by immunoblotting analysis; format: cell-based; conditions: time hrs <=48, TDE = time-dependent effect
[31] = Cytotoxicity against HEK293 cells assessed as reduction in cell viability measured after 72 hrs by CCK8 assay; format: cell-based; conditions: human
[32] = target: T3, Tyrosinase (Homo sapiens, UniProt P14679); experiment: Inhibition of human tyrosinase
T3 sequence (P14679 whole entry): T2 sequence (whole entry)

[33] = target: Mushroom tyrosinase (Agaricus bisporus, UniProt O42713+Q00024+C7FF04+C7FF05); experiment: Binding affinity to mushroom tyrosinase assessed as dissociation constant

T1 sequence (Q96SW2 whole entry, looked up, one chain of several): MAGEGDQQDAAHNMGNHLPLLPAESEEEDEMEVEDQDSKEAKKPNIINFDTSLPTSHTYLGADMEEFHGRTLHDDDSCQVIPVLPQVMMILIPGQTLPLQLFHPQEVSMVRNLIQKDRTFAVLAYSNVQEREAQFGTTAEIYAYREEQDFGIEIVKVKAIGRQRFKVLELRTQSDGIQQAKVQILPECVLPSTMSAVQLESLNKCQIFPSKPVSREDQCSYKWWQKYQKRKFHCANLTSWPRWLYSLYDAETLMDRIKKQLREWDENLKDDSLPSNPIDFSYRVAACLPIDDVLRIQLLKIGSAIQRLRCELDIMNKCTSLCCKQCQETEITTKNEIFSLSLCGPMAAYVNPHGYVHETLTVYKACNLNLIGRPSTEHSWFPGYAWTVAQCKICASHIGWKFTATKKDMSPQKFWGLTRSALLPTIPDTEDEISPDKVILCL
Sequence of Beta-1 adrenergic receptor (Homo sapiens) (P08588 whole entry, looked up): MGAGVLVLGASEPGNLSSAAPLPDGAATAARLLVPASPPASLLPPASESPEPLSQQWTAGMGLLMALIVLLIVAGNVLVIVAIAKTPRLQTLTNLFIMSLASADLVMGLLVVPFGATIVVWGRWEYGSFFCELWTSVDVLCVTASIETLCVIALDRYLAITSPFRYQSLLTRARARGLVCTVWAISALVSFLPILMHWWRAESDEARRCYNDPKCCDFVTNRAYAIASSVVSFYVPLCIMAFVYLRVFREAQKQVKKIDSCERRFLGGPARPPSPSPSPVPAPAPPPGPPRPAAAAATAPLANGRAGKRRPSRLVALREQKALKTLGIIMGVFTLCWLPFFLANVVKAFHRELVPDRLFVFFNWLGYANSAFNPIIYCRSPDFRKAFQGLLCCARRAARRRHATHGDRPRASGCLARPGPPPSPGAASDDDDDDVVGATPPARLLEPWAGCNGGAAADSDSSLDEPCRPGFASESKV
Sequence of D(1A) dopamine receptor (Homo sapiens) (P21728 whole entry): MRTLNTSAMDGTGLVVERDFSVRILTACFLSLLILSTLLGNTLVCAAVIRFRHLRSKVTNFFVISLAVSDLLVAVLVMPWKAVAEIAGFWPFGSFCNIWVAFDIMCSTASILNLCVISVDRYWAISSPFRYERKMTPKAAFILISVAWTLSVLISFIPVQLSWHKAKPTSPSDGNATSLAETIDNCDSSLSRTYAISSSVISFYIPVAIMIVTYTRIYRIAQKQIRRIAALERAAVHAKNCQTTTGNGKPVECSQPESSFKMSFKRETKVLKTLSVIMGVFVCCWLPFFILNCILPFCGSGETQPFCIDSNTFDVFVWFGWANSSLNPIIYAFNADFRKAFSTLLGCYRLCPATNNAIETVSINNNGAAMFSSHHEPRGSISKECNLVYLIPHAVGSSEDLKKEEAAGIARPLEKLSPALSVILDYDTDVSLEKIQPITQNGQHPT

In the case of `O=C1CCC(N2C(=O)c3ccccc3C2=O)C(=O)N1` (configuration not stated), the Activity [1] was “inactive”.
In the case of `CN1C(=O)CCC(N2C(=O)c3cccc(NCCCCCNC(=O)[C@@H](N)Cc4ccc(O)c(O)c4)c3C2=O)C1=O` (some centres not stated), the Activity [2] was “inactive”.
Work on `N[C@@H](Cc1ccc(O)c(O)c1)C(=O)NCCNc1cccc2c1C(=O)N(C1CCC(=O)NC1=O)C2=O` (some centres not stated) yielded an Activity [3] of 14%.
In the case of `O=C1CCC(N2C(=O)c3cccc(NCCCCCCCCC(=O)OCc4cc(=O)c(O)co4)c3C2=O)C(=O)N1` (configuration not stated), the Activity [1] was “inactive”.
In the case of `N[C@@H](Cc1ccccc1)C(=O)NCCCCCNc1cccc2c1C(=O)N(C1CCC(=O)NC1=O)C2=O` (some centres not stated), the Activity [2] was “inactive”.
`N[C@@H](Cc1ccc(O)c(O)c1)C(=O)NCCCCCCCCCCNc1cccc2c1C(=O)N(C1CCC(=O)NC1=O)C2=O` (some centres not stated) gave an Activity [3] of 37%.
In the case of `N[C@@H](Cc1ccc(O)c(O)c1)C(=O)NCCCCCCCNc1cccc2c1C(=O)N(C1CCC(=O)NC1=O)C2=O` (some centres not stated), the Activity [3] was 37%.
With `N[C@@H](Cc1ccc(O)c(O)c1)C(=O)NCCOCCNc1cccc2c1C(=O)N(C1CCC(=O)NC1=O)C2=O` (some centres not stated) the Activity [3] was 7%.
For `O=C(CCc1ccc(O)c(O)c1)NCCCCCNc1cccc2c1C(=O)N(C1CCC(=O)NC1=O)C2=O` (configuration not stated), the Activity [2] was “inactive”.
For `N[C@@H](Cc1ccc(O)c(O)c1)C(=O)NCCCCCCNc1cccc2c1C(=O)N(C1CCC(=O)NC1=O)C2=O` (some centres not stated), the Activity [4] was “inactive”, the Activity [5] was “inactive” and the Activity [3] was over 25%. The Activity [6] was “inactive”.
With `O=C1CCC(N2C(=O)c3cccc(NCCCCCCCC(=O)OCc4cc(=O)c(O)co4)c3C2=O)C(=O)N1` (configuration not stated) the Activity [1] was “inactive”.
In the case of `O=c1cc(CO)occ1O` [KOJIC ACID], the inhibition [7] was “inactive”, the inhibition [8] was “inactive” and the inhibition [9] was “inactive”. For the same compound, the solubility [10] was 55 µg/mL (≈ 387 µM), the inhibition [11] was “inactive” and the inhibition [12] was “Active”. For the same compound, the Activity [13] was “Active”.
For `N[C@@H](Cc1cccc(O)c1)C(=O)NCCCCCNc1cccc2c1C(=O)N(C1CCC(=O)NC1=O)C2=O` (some centres not stated), the Activity [2] was “inactive”.
With `N[C@@H](Cc1ccc(O)c(O)c1)C(=O)NCCOCCOCCNc1cccc2c1C(=O)N(C1CCC(=O)NC1=O)C2=O` (some centres not stated) the Activity [3] was 7%.
For `N[C@@H](Cc1ccc(O)c(O)c1)C(=O)NCCCNc1cccc2c1C(=O)N(C1CCC(=O)NC1=O)C2=O` (some centres not stated), the Activity [3] was 25%.
With `N[C@@H](Cc1ccc(O)cc1)C(=O)NCCCCCNc1cccc2c1C(=O)N(C1CCC(=O)NC1=O)C2=O` (some centres not stated) the Activity [2] was “inactive”.
Work on `N[C@@H](Cc1ccc(O)c(O)c1)C(=O)NCCCCNc1cccc2c1C(=O)N(C1CCC(=O)NC1=O)C2=O` (some centres not stated) yielded an Activity [3] of 19%.
In the case of `O=C1CCC(N2C(=O)c3cccc(NCCCCCCCCCCC(=O)OCc4cc(=O)c(O)co4)c3C2=O)C(=O)N1` (configuration not stated), the Activity [1] was “inactive”.
In the case of `O=c1oc2c(O)c(O)cc3c(=O)oc4c(O)c(O)cc1c4c23` [ELLAGIC ACID], the solubility [10] was 9.7 µg/mL (≈ 32.1 µM).
With `N[C@@H](Cc1ccc(O)c(O)c1)C(=O)NCCCCCCCCNc1cccc2c1C(=O)N(C1CCC(=O)NC1=O)C2=O` (some centres not stated) the Activity [1] was “Active” and the Activity [3] was 38%.
In the case of `N[C@@H](Cc1ccc(O)c(O)c1)C(=O)NCCCCCNc1cccc2c1C(=O)N(C1CCC(=O)NC1=O)C2=O` (some centres not stated), the Activity [14] was “Non-Toxic”, the Activity [1] was “Active” and the Activity [15] was “inactive”. For the same compound, the Activity [4] was “inactive”, the Activity [16] was “Non-Toxic” and the %max [17] was 61%. For the same compound, the logP [18] was -0.65, the Activity [19] was “inactive” and the CC50 at 72 h [20] was over 700 µM. For the same compound, the Activity [5] was “inactive”, the Activity [3] was 46% and the “fold change (FC)” value [21] was 1.7. The “fold change (FC)” value [22] was 3.3, the Activity [23] was “Dose-Dependent Effect” and the Activity [24] was “Non-Toxic”. The inhibition [7] was “Active”, the Activity [25] was “Non-Toxic” and the inhibition [8] was “Active”. The Activity [26] was 81%, the “fold change (FC)” value [27] was 1.4 and the inhibition [28] was “Dose-Dependent Effect”. The inhibition [9] was “Active”, the “fold change (FC)” value [29] was 5.1 and the Activity [30] was “Tde”. For the same compound, the solubility [10] was 11400 µg/mL (≈ 21200 µM), the inhibition [11] was “Active” and the CC50 at 72 h [31] was over 700 µM. For the same compound, the Activity [6] was “inactive” and the pIC50 [32] was 3.95.
For `O=C1CCC(N2C(=O)c3cccc(NCCCCCC(=O)OCc4cc(=O)c(O)co4)c3C2=O)C(=O)N1` (configuration not stated), the Activity [1] was “inactive”.
For `N[C@@H](Cc1ccc(O)c(O)c1)C(=O)O` [LEVODOPA], the Activity [1] was “inactive”, the inhibition [7] was “inactive” and the inhibition [8] was “inactive”. For the same compound, the inhibition [9] was “inactive”, the inhibition [11] was “inactive” and the inhibition [12] was “Active”. The Kd [33] was 19 µM.
